Experimental findings from patent US9693556B2, “Herbicidal pyridazinone derivatives” (SYNGENTA LIMITED, priority 2011, dated 2017) are described below.

What all share (type): in vivo
The subject of assay [1] is Solanum nigrum (SOLNI). The experiment in a line: Pre-emergence herbicidal glasshouse test on Solanum nigrum. To be noted: pre-emergence; 1000 g/h; evaluated after 13 days. The method, boiled down: (§1)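 Herbicidal damage was rated 13 days after treatment on a five-point scale, where 5 denotes 80-100% and 1 denotes 0-19% damage. Spraying at 1000 g/h followed sowing by one day (pre-emergence) or eight days (post-emergence).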

For assay [2], the system named is Setaria faberi (SETFA). Description: Pre-emergence herbicidal glasshouse test on Setaria faberi. To be noted: pre-emergence; 1000 g/h; evaluated after 13 days. The method, boiled down:
as §1

Assay [3] concerns Echinochloa crus-galli (ECHCG). The experiment in a line: Post-emergence herbicidal glasshouse test on Echinochloa crus-galli. To be noted: post-emergence; 1000 g/h; evaluated after 13 days. The method, boiled down: as §1
In assay [4] the test system is Ipomoea hederacea (IPOHE). The experiment in a line: Post-emergence herbicidal glasshouse test on Ipomoea hederacea. To be noted: post-emergence; 1000 g/h; evaluated after 13 days. The method, boiled down: as §1
In assay [5] the test system is Amaranthus retoflexus (AMARE). The experiment in a line: Post-emergence herbicidal glasshouse test on Amaranthus retoflexus. To be noted: post-emergence; 1000 g/h; evaluated after 13 days. The method, boiled down: as §1
The test system of assay [6] is Alopecurus myosuroides (ALOMY). The experiment in a line: Post-emergence herbicidal glasshouse test on Alopecurus myosuroides. To be noted: post-emergence; 1000 g/h; evaluated after 13 days. The method, boiled down: as §1
Assay [7] deals with Echinochloa crus-galli (ECHCG). The experiment in a line: Pre-emergence herbicidal glasshouse test on Echinochloa crus-galli. To be noted: pre-emergence; 1000 g/h; evaluated after 13 days. The method, boiled down:
as §1

The test system of assay [8] is Alopecurus myosuroides (ALOMY). Description: Pre-emergence herbicidal glasshouse test on Alopecurus myosuroides. To be noted: pre-emergence; 1000 g/h; evaluated after 13 days. The method, boiled down:
as §1

Assay [9] relates to Ipomoea hederacea (IPOHE). The experiment in a line: Pre-emergence herbicidal glasshouse test on Ipomoea hederacea. To be noted: pre-emergence; 1000 g/h; evaluated after 13 days. The method, boiled down:
as §1

In assay [10] the test system is Setaria faberi (SETFA). Description: Post-emergence herbicidal glasshouse test on Setaria faberi. To be noted: post-emergence; 1000 g/h; evaluated after 13 days. The method, boiled down:
as §1

Assay [11] relates to Solanum nigrum (SOLNI). Description: Post-emergence herbicidal glasshouse test on Solanum nigrum. To be noted: post-emergence; 1000 g/h; evaluated after 13 days. The method, boiled down:
as §1

Assay [12] relates to Amaranthus retoflexus (AMARE). Description: Pre-emergence herbicidal glasshouse test on Amaranthus retoflexus. To be noted: pre-emergence; 1000 g/h; evaluated after 13 days. The method, boiled down:
as §1

`Cn1ncc(-c2ccccc2Cl)c(O)c1=O` [Compound 1.114]: the “PRE Application SOLNI herbicidal damage (five point scale)” value (“PRE Application SOLNI herbicidal damage” below) in [1] is listed as 1 (1=0-19% damage). Further, the “PRE Application SETFA herbicidal damage (five point scale)” value (“PRE Application SETFA herbicidal damage” for short) in assay [2] is listed as 1 (1=0-19% damage). In addition, the “POST Application ECHCG herbicidal damage (five point scale)” value (from here on “POST Application ECHCG herbicidal damage”) in assay [3] was 1 (1=0-19% damage). Moreover, the “POST Application IPOHE herbicidal damage (five point scale)” value (shortened to “POST Application IPOHE herbicidal damage”) in [4] is recorded as 1 (1=0-19% damage). Also, the “POST Application AMARE herbicidal damage (five point scale)” value (“POST Application AMARE herbicidal damage” below) in [5] was 1 (1=0-19% damage). In assay [6], the “POST Application ALOMY herbicidal damage (five point scale)” value (from here on “POST Application ALOMY herbicidal damage”) is reported as 1 (1=0-19% damage). Further, the “PRE Application ECHCG herbicidal damage (five point scale)” value (shortened to “PRE Application ECHCG herbicidal damage”) in assay [7] was 1 (1=0-19% damage). Besides, in [8], the “PRE Application ALOMY herbicidal damage (five point scale)” value (shortened to “PRE Application ALOMY herbicidal damage”) is 1 (1=0-19% damage). For the same compound, in assay [9], the “PRE Application IPOHE herbicidal damage (five point scale)” value (shortened to “PRE Application IPOHE herbicidal damage”) is reported as 1 (1=0-19% damage). Also, in assay [10], the “POST Application SETFA herbicidal damage (five point scale)” value (shortened to “POST Application SETFA herbicidal damage”) is on record as 1 (1=0-19% damage). In assay [11], the “POST Application SOLNI herbicidal damage (five point scale)” value (“POST Application SOLNI herbicidal damage” below) is reported as 1 (1=0-19% damage). For the same compound, the “PRE Application AMARE herbicidal damage (five point scale)” value (from here on “PRE Application AMARE herbicidal damage”) in [12] is 1 (1=0-19% damage).
Take `COCCOc1c(S(C)(=O)=O)ccc(-c2cnn(C)c(=O)c2O)c1Cl` [Compound 1.034]: in assay [1], the “PRE Application SOLNI herbicidal damage” value is given as 5 (5=80-100% damage). For the same compound, the “PRE Application SETFA herbicidal damage” value in [2] is listed as 5 (5=80-100% damage). Further, the “POST Application ECHCG herbicidal damage” value in assay [3] is 5 (5=80-100% damage). The “POST Application IPOHE herbicidal damage” value in assay [4] is recorded as 5 (5=80-100% damage). Besides, in [5], the “POST Application AMARE herbicidal damage” value is 5 (5=80-100% damage). In assay [6], the “POST Application ALOMY herbicidal damage” value is reported as 4 (4=60-79% damage). Besides, the “PRE Application ECHCG herbicidal damage” value in assay [7] is 5 (5=80-100% damage). Moreover, the “PRE Application ALOMY herbicidal damage” value in assay [8] is reported as 2 (2=20-39% damage). In assay [9], the “PRE Application IPOHE herbicidal damage” value is listed as 3 (3=40-59% damage). Further, the “POST Application SETFA herbicidal damage” value in assay [10] is reported as 5 (5=80-100% damage). In assay [11], the “POST Application SOLNI herbicidal damage” value is on record as 5 (5=80-100% damage). The “PRE Application AMARE herbicidal damage” value in [12] was 5 (5=80-100% damage).
As to `CCOc1cccc(-c2c(C(F)(F)F)ccn(-c3cnn(C)c(=O)c3O)c2=O)c1` [Compound 7.016], in assay [1], the “PRE Application SOLNI herbicidal damage” value is listed as 5 (5=80-100% damage). The “PRE Application SETFA herbicidal damage” value in assay [2] was 2 (2=20-39% damage). In addition, in assay [3], the “POST Application ECHCG herbicidal damage” value was 2 (2=20-39% damage). Further, the “POST Application IPOHE herbicidal damage” value in assay [4] was 1 (1=0-19% damage). The “POST Application AMARE herbicidal damage” value in assay [5] is 5 (5=80-100% damage). The “POST Application ALOMY herbicidal damage” value in assay [6] is 2 (2=20-39% damage). For the same compound, the “PRE Application ECHCG herbicidal damage” value in [7] is 2 (2=20-39% damage). In addition, the “PRE Application ALOMY herbicidal damage” value in assay [8] is listed as 2 (2=20-39% damage). For the same compound, the “PRE Application IPOHE herbicidal damage” value in assay [9] is on record as 1 (1=0-19% damage). In [10], the “POST Application SETFA herbicidal damage” value is 2 (2=20-39% damage). Moreover, in assay [11], the “POST Application SOLNI herbicidal damage” value was 5 (5=80-100% damage). Besides, the “PRE Application AMARE herbicidal damage” value in [12] is on record as 5 (5=80-100% damage).
As for `Cc1cc(-c2cnn(C)c(=O)c2O)c(C)c2c1S(=O)(=O)CCC21OCCO1` [Compound 1.031], the “PRE Application SOLNI herbicidal damage” value in [1] is 2 (2=20-39% damage). Moreover, the “PRE Application SETFA herbicidal damage” value in assay [2] was 4 (4=60-79% damage). Further, in assay [3], the “POST Application ECHCG herbicidal damage” value was 5 (5=80-100% damage). Further, in assay [4], the “POST Application IPOHE herbicidal damage” value is given as 5 (5=80-100% damage). Also, the “POST Application AMARE herbicidal damage” value in [5] is reported as 5 (5=80-100% damage). Also, in [6], the “POST Application ALOMY herbicidal damage” value is 2 (2=20-39% damage). The “PRE Application ECHCG herbicidal damage” value in assay [7] was 5 (5=80-100% damage). Further, the “PRE Application ALOMY herbicidal damage” value in assay [8] is reported as 1 (1=0-19% damage). Besides, the “PRE Application IPOHE herbicidal damage” value in assay [9] is 1 (1=0-19% damage). Also, the “POST Application SETFA herbicidal damage” value in assay [10] was 5 (5=80-100% damage). The “POST Application SOLNI herbicidal damage” value in assay [11] is reported as 5 (5=80-100% damage). Moreover, the “PRE Application AMARE herbicidal damage” value in assay [12] is 5 (5=80-100% damage).
